In patent publication US10864210B2, “Composition and combined medication method for treating enterovirus infection” (priority 2016, dated 2020):

Experiments:
Assay type in all cases: cell-based, Enterovirus 71
EV71 [1] = test: Evaluation experiment for compounds: inhibition of EV71-induced CPE in RD cells (CellTiter-Glo); conditions: single compound, 2-fold dilutions
Experimental: Itraconazole purchased from Sigma-Aldrich is dissolved in DMSO to a final concentration of 10 mM; suramin purchased from Bayer is dissolved in a medium containing 2% FBS to a final concentration of 50 mM; favipiravir purchased from Chembest is dissolved in DMSO to a final concentration of 400 mM; rupintrivir purchased from Santa Cruz is dissolved in DMSO to a final concentration of 2 mM; and GW5074 purchased from Sigma is dissolved in DMSO to a final concentration of 10 mM. To evaluate the inhibition of EV71-induced CPE activity by five compounds, the inventors perform dose dependent experiments.
The raw data are input into an Excel sheet to calculate the signal-to-background ratio (S/B), the signal-to-noise ratio (S/N), Z factor, and the inhibition rate of the test compound against the virus. […] The antiviral activity of the compound CPE inhibition rate=(μcpd−μv)/(μc−μv)×100%, wherein μcpd represents the average signal intensity of the test compound; and the effect of the compound on the cell, cell survival rate=μcpd/μc×100%. The half maximum effect concentration (EC50) is a concentration that causes a 50% maximum effect. The half-cytotoxic concentration (CC50) refers to a concentration of the medicament that causes 50% cytotoxicity, which is expressed in this experiment as a 50% reduction in the fluorescence intensity of the experimental group compared with the control group.
(A) 2-fold dilution of itraconazole, rupintrivir, favipiravir, suramin, and GW5074 were separately added to RD cells, and virus or medium was added and cultured for 96 hours. The cell viability was measured by CellTiter-Glo kit. The inhibitory effects of […] compounds on EV71 and the toxic effects on cells were examined. (B) Virus and 2-fold dilution of itraconazole, rupintrivir, favipiravir, suramin, and GW5074 were separately added into RD cells. After 48 hours of culture, the supernatant was collected and the viral titer was determined by TCID50 method. The results were processed using Graphpad Prism5. The data in the figure were obtained from two independent parallel experiments, and the error bars represent the standard deviation of the two parallel experiments.

[2] = tested on: EV71 containing 3D protein mutation; test: Mutant virus resistance experiment based on cytopathic effect in Vero cells; conditions: CPE-based
Experimental: To determine the resistance of the selected mutant virus and recombinant virus to the compound, the inventors conduct experiments based on cytopathic effects and viral titer reduction experiments. […] EV71 G082 strain is served as a control.
The supernatant from the 16th passage culture was collected and sequenced. EV71 containing 3D protein mutation was constructed by reverse genetics system. The viral titer was determined by plaque formation assay, the virus resistance to favipiravir was detected by viral titer reduction experiment. The experimental method was the same as the compound verification experiment. (B) The effects of itraconazole, rupintrivir, suramin and GW5074 on a virus containing 3D protein mutation were determined using an experiment based on cytopathic effect. The results were processed using Graphpad Prism5. The data in the figure were obtained from two independent parallel experiments, and the error bars represent the standard deviation of the two parallel experiments.

[3] = tested on: EV71 having amino acid residue mutation at position 121 in the 3D protein; test: Favipiravir resistance screening and viral titer reduction experiment in Vero cells; conditions: viral titer reduction
Experimental: (§1) RD cells are seeded in a 12-well plate with 3×10^5 cells/well, cultured overnight at 37° C. for 24 hours. Then EV71 virus solution with MOI=0.1 and 2-fold dilution of itraconazole, rupintrivir, favipiravir, suramin and GW5074 are added and cultured at 37° C. for 48 h. The supernatant is collected, frozen in a −80° C. refrigerator, and then determined for viral titer. To determine the resistance of the passaged virus to favipiravir, the inventors inoculate Vero cells in a 12-well plate, 3×10^5 cells/well and culture overnight at 37° C. After 24 hours, EV71 virus solution with MOI=0.1 is added and 300 μM and 600 μM favipiravir are separately added. After cultured at 37° C. for 48 hours, the supernatant is collected and frozen in a −80° C. refrigerator, and then the viral titer is measured.
The present inventors conduct a passage experiment to screen a favipiravir resistant strain. 3×10^5 Vero cells are seeded in a 12-well plate, cultured overnight at 37° C. […] After 16 continuous passages, the titer of the virus in the supernatant, the resistance to the compound, and sequencing are determined. […]
The supernatant from the 16th passage culture was collected and sequenced. […] The viral titer was determined by plaque formation assay, the virus resistance to favipiravir was detected by viral titer reduction experiment. […]

EV71 [4] = test: Viral titer reduction experiment (single compound)
Experimental: as §1
EV71, itraconazole, and 0.5 μM or 1 μM of rupintrivir were simultaneously added to Vero cells, the virus was subcultured, and the supernatant was collected.

CCOC(=O)/C=C/[C@H](C[C@@H]1CCNC1=O)NC(=O)[C@@H](CC(=O)[C@@H](NC(=O)c1cc(C)on1)C(C)C)Cc1ccc(F)cc1 [rupintrivir]
inhibition of EV71 infection of cells (EV71 [1]): effective in inhibiting EV71 infection of cells in a dose-dependent manner
cross-resistance of favipiravir-resistant mutant virus compared with wild type virus (G082) [2]: no cross-resistance was found

Cc1ccc(C(=O)Nc2ccc(S(=O)(=O)O)c3cc(S(=O)(=O)O)cc(S(=O)(=O)O)c23)cc1NC(=O)c1cccc(NC(=O)Nc2cccc(C(=O)Nc3cc(C(=O)Nc4ccc(S(=O)(=O)O)c5cc(S(=O)(=O)O)cc(S(=O)(=O)O)c45)ccc3C)c2)c1 [suramin]
inhibition of EV71 infection of cells (EV71 [1]): effective in inhibiting EV71 infection of cells in a dose-dependent manner
cross-resistance of favipiravir-resistant mutant virus compared with wild type virus (G082) [2]: no cross-resistance was found

O=C1Nc2ccc(I)cc2/C1=C/c1cc(Br)c(O)c(Br)c1 [GW5074]
inhibition of EV71 infection of cells (EV71 [1]): effective in inhibiting EV71 infection of cells in a dose-dependent manner
cross-resistance of favipiravir-resistant mutant virus compared with wild type virus (G082) [2]: no cross-resistance was found

NC(=O)c1nc(F)cnc1O [favipiravir]
inhibition of EV71 infection of cells (EV71 [1]): effective in inhibiting EV71 infection of cells in a dose-dependent manner
resistance of EV71 with position 121 3D protein mutation to the compound [3]: resistant

CCC(C)n1ncn(-c2ccc(N3CCN(c4ccc(OCC5COC(Cn6cncn6)(c6ccc(Cl)cc6Cl)O5)cc4)CC3)cc2)c1=O (centres unmarked) [itraconazole]
inhibition of EV71 infection of cells (EV71 [1]): effective in inhibiting EV71 infection of cells in a dose-dependent manner
cross-resistance of favipiravir-resistant mutant virus compared with wild type virus (G082) [2]: no cross-resistance was found
removal of viruses in the cell culture by single compound (EV71 [4]): could not remove all the viruses in the cell culture
